The source of these data is patent US20230364194A1, “GLP-1R/GCGR Dual Target Agonist Polypeptide Derivative for Treatment of Hepatic Fibrosis Associated with Viral Hepatitis” (Shenzhen Turier Biotech. Co., Ltd., priority 2020, published 2023).

The test relates to Hepatic stellate cell strain LX-2. As to the kind of experiment: In vitro effect on expression of LX-2 cell activation marker α-SMA (Western Blot, β-actin reference). Format: cell-based. To be noted: LX-2 cells, 10.0 uM, 48 hours, negative control = 100%. An excerpt: Hepatic stellate cell strain LX-2 (from China Center for Type Culture Collection, Shanghai) was selected to study and observe the effects of polypeptide compounds 1-25 on the expression level of LX-2 cell activation marker α-smooth muscle actin (α-SMA). The control group was given the same volume of Dulbecco’s modified Eagle medium (DMEM) (from Gibco, United States), and β-actin (from TransGen Biotech) as the endogenous reference, wherein, α-SMA is a symbolic feature that distinguishes […] from myofibroblasts.
Hepatic stellate cell LX-2 was laid on 35 mm cell culture plate, cultured with DMEM (high glucose)+10% FBS+1% double-antibody culture medium (Thermo Fisher), placed overnight when the cells grew to 70% convergence at 37° C. under the condition of 5% CO2 without serum, and treated with the above GLP-1R/GCGR dual target agonist polypeptide derivatives (namely, polypeptide compounds 1-25) (dissolved in PBS) for 48 hours from the next morning to extract cell protein, and then Western Blot was performed with β-actin as endogenous reference to analyze the expression levels of α-SMA and β-actin by gray-scale analysis using Image J 1.50i. PBS with the same volume as that in experimental group was added in negative control.
The above polypeptide compounds 1-25 with a concentration of 10.0 µM were added, showing that they could reduce the expression of α-SMA at the concentration of 10.0 µM; and the negative control had no effect on the expression of α-SMA (referring to Table 2).
The integrated gray scale of α-SMA/β-actin in the negative control group was considered to be 100% to analyze the in vitro inhibitory activity on hepatic fibrosis by tested polypeptides.
(A western blot detects proteins with antibodies after separation by electrophoresis.)

Starred links: 1 amine or outer side, 2 acyl side, 3 side chain; linkers in the order of their positions; H or OH if unused. Non-standard residues stand in square brackets, D forms with d. Groups on a side chain read outwards from the residue. Primed or numbered codes have the meaning given here. No end group written: not given here. *: point of attachment. C18 diacid = O=C(O)CCCCCCCCCCCCCCCCC(=O)*; C16 diacid = O=C(O)CCCCCCCCCCCCCCC(=O)*; γGlu = O=C(O)[C@H](CCC(=O)[*:2])N[*:1]; Stearoyl = CCCCCCCCCCCCCCCCCC(=O)*; Palmitoyl = CCCCCCCCCCCCCCCC(=O)*; PEG2′ = not defined here; Aib = CC(C)(N)C(=O)O

In the case of “His-(D-Ser)-Gln-Gly-Thr-Phe-Thr-Ser-Asp-Tyr-Ser-Lys-Tyr-Leu-Asp-Glu-Lys(PEG2-PEG2-γGlu-CO(CH2)16CO2H)-Ala- Ala-His-Asp-Phe-Val-Glu-Trp-Leu-Leu-Asn-Gly-Gly-Gly-Pro-Ser-Ser-Gly-Ala-Pro-Pro-Pro-Ser-NH2 (H[dS]QGTFTSDYSKYLDEK([PEG2′-PEG2′-γGlu-C18 diacid])AAHDFVEWLLNGGGPSSGAPPPS-NH2) [Compound 9]”, the “Relative expression of α-SMA (α-SMA/β-actin, %)” value was determined as 40.89%.
In the case of “His-(D-Ser)-Gln-Gly-Thr-Phe-Thr-Ser-Asp-Tyr-Ser-Lys-Tyr-Leu-Asp-Glu-Lys-Ala-Ala-Lys(PEG2-PEG2-yGlu- CO(CH2)16CO2H)-Glu-Phe-Ile-Glu-Trp-Leu-Leu-Asn-Gly- Gly-Gly-Pro-Ser-Ser-Gly-Ala-Pro-Pro-Pro-Ser-NH2 (H[dS]QGTFTSDYSKYLDEKAAK([PEG2′-PEG2′-γGlu-C18 diacid])EFIEWLLNGGGPSSGAPPPS-NH2) [Compound 12]” it was 41.99%; in that of “His-(D-Ser)-Gln-Gly-Thr-Phe-Thr-Ser-Asp-Tyr-Ser-Lys-Tyr-Leu-Asp-Glu-Lys-Ala-Ala-Lys(PEG2-PEG2-γGlu- CO(CH2)14C3)-Glu-Phe-Ile-Glu-Trp-Leu-Leu-Arg-Gly-Gly- Gly-Pro-Ser-Ser-Gly-Ala-Pro-Pro-Pro-Ser-NH2 (H[dS]QGTFTSDYSKYLDEKAAK([PEG2′-PEG2′-γGlu-Palmitoyl])EFIEWLLRGGGPSSGAPPPS-NH2) [Compound 10]”, 46.35%; in that of “His-(D-Ser)-Gln-Gly-Thr-Phe-Thr-Ser-Asp-Tyr-Ser-Lys-Tyr-Leu-Asp-Glu-Lys-Ala-Ala-Lys(PEG2-PEG2-γGlu- CO(CH2)16CH3)-Glu-Phe-Ile-Glu-Trp-Leu-Leu-Asn-Gly-Gly- Gly-Pro-Ser-Ser-Gly-Ala-Pro-Pro-Pro-Ser-NH2 (H[dS]QGTFTSDYSKYLDEKAAK([PEG2′-PEG2′-γGlu-Stearoyl])EFIEWLLNGGGPSSGAPPPS-NH2) [Compound 14]”, 47.85%.
As for “His-(D-Ser)-Gln-Gly-Thr-Phe-Thr-Ser-Asp-Tyr-Ser-Lys-Tyr-Leu-Asp-Glu-Lys-Ala-Ala-Lys(PEG2-PEG2-γGlu- CO(CH2)16CO2H)-Glu-Phe-Ile-Glu-Trp-Leu-Leu-Arg-Thr-Gly- Gly-Pro-Ser-Ser-Gly-Ala-Pro-Pro-Pro-Ser-NH2 (H[dS]QGTFTSDYSKYLDEKAAK([PEG2′-PEG2′-γGlu-C18 diacid])EFIEWLLRTGGPSSGAPPPS-NH2) [Compound 8]”, the “Relative expression of α-SMA (α-SMA/β-actin, %)” value worked out at 39.92%.
In the case of “His-(D-Ser)-Gln-Gly-Thr-Phe-Thr-Ser-Asp-Tyr-Ser-Lys-Tyr-Leu-Asp-Glu-Lys-Ala-Ala-Lys(PEG2-PEG2-γGlu-CO(CH2)14CO2H)-Glu-Phe-Ile-Glu-Trp-Leu-Leu-Asn-Gly- Gly-Gly-Pro-Ser-Ser-Gly-Ala-Pro-Pro-Pro-Ser-NH2 (H[dS]QGTFTSDYSKYLDEKAAK([PEG2′-PEG2′-γGlu-C16 diacid])EFIEWLLNGGGPSSGAPPPS-NH2) [Compound 13]” it was 40.46%; in that of “His-(D-Ser)-Gln-Gly-Thr-Phe-Thr-Ser-Asp-Tyr-Ser-Lys-Tyr-Leu-Asp-Lys(PEG2-PEG2-CO(CH2)16CO2H)-Arg-Arg-Ala- Gln-Asp-Phe-Val-Gln-Trp-Leu-Met-Asn-Thr-Gly-Gly-Pro-Ser-Ser-Gly-Ala-Pro-Pro-Pro-Ser-NH2 (H[dS]QGTFTSDYSKYLDK([PEG2′-PEG2′-C18 diacid])RRAQDFVQWLMNTGGPSSGAPPPS-NH2) [Compound 18]”, 45.95%.
To “His-(D-Ser)-Gln-Gly-Thr-Phe-Thr-Ser-Asp-Tyr-Ser-Lys-Tyr-Leu-Asp-Lys(PEG2-PEG2-CO(CH2)16CO2H)-Arg-Arg-Ala- Gln-Asp-Phe-Val-Gln-Trp-Leu-Nle-Asn-Thr-Gly-Gly-Pro-Ser-Ser-Gly-Ala-Pro-Pro-Pro-Ser-NH2 (HXQGTFTSDYSKYLDKRRAQDFVQWLXNTGGPSSGAPPPS; D-Ser; Nle; PEG2-PEG2-C18 diacid lipidation; C-terminal amide; (2)..(2) Xaa=D-Ser; (16)..(16) A side chain of Lys is linked to -PEG2-PEG2-CO(CH2)16CO2H; (27)..(27) Xaa=Nle) [Compound 24]” belongs 52.65%; to “His-(D-Ser)-Gln-Gly-Thr-Phe-Thr-Ser-Asp-Tyr-Ser-Lys-Tyr-Leu-Asp-Lys(PEG2-PEG2-yGlu-CO(CH2)16CO2H)-Arg-Arg- Ala-Gln-Asp-Phe-Val-Gln-Trp-Leu-Leu-Asn-Thr-Gly-Gly-Pro-Ser -Ser-Gly-Ala-Pro-Pro-Pro-Ser-NH2 (H[dS]QGTFTSDYSKYLDK([PEG2′-PEG2′-γGlu-C18 diacid])RRAQDFVQWLLNTGGPSSGAPPPS-NH2) [Compound 22]”, 48.76%; to “His-(D-Ser)-Gln-Gly-Thr-Phe-Thr-Ser-Asp-Tyr-Ser-Lys-Tyr-Leu-Asp-Lys(PEG2-PEG2-yGlu-CO(CH2)16CO2H)-Arg-Arg- Ala-Gln-Asp-Phe-Val-Gln-Trp-Leu-Nle-Asn-Thr-Gly-Gly-Pro-Ser -Ser-Gly-Ala-Pro-Pro-Pro-Ser-NH2 (HXQGTFTSDYSKYLDKRRAQDFVQWLXNTGGPSSGAPPPS; D-Ser; Nle; PEG2-PEG2-γGlu-C18 diacid lipidation; C-terminal amide; (2)..(2) Xaa=D-Ser; (16)..(16) A side chain of Lys is linked to -PEG2-PEG2-AGlu-CO(CH2)16CO2H; (27)..(27) Xaa=Nle) [Compound 21]”, 43.39%.
Consider “His-(D-Ser)-Gln-Gly-Thr-Phe-Thr-Ser-Asp-Tyr-Ser-Lys-Tyr-Leu-Asp-Lys(PEG2-PEG2-γGlu-CO(CH2)14CH3)-Arg-Arg-Ala- Gln-Asp-Phe-Val-Gln-Trp-Leu-Met-Asn-Thr-Gly-Gly-Pro-Ser-Ser-Gly-Ala-Pro-Pro-Pro-Ser-NH2 (H[dS]QGTFTSDYSKYLDK([PEG2′-PEG2′-γGlu-Palmitoyl])RRAQDFVQWLMNTGGPSSGAPPPS-NH2) [Compound 1]”, for which the “Relative expression of α-SMA (α-SMA/β-actin, %)” value came to 57.59%.
In the case of “His-(D-Ser)-Gln-Gly-Thr-Phe-Thr-Ser-Asp-Tyr-Ser-Lys-Tyr-Leu-Asp-Lys(PEG2-PEG2-γGlu-CO(CH2)16CH3)-Arg-Arg-Ala- Gln-Asp-Phe-Val-Gln-Trp-Leu-Met-Asn-Thr-Gly-Gly-Pro-Ser-Ser-Gly-Ala-Pro-Pro-Pro-Ser-NH2 (H[dS]QGTFTSDYSKYLDK([PEG2′-PEG2′-γGlu-Stearoyl])RRAQDFVQWLMNTGGPSSGAPPPS-NH2) [Compound 19]” it was 44.78%.
To “His-(D-Ser)-Gln-Gly-Thr-Phe-Thr-Ser-Asp-Tyr-Ser-Lys-Tyr-Leu-Asp-Lys(PEG2-PEG2-γGlu-CO(CH2)16CO2H)-Arg-Arg- Ala-Gln-Asp-Phe-Val-Gln-Trp-Leu-Met-Asn-Thr-Gly-Gly-Pro-Ser-Ser-Gly-Ala-Pro-Pro-Pro-Ser-NH2 (H[dS]QGTFTSDYSKYLDK([PEG2′-PEG2′-γGlu-C18 diacid])RRAQDFVQWLMNTGGPSSGAPPPS-NH2) [Compound 17]” belongs 38.78%; to “His-(D-Ser)-Gln-Gly-Thr-Phe-Thr-Ser-Asp-Tyr-Ser-Lys-Tyr-Leu-Asp-Lys-Lys(PEG2-PEG2-γGlu-CO(CH2)14CH3)-Arg-Ala- Gln-Asp-Phe-Val-Gln-Trp-Leu-Met-Asn-Thr-Gly-Gly-Pro-Ser-Ser-Gly-Ala-Pro-Pro-Pro-Ser-NH2 (H[dS]QGTFTSDYSKYLDKK([PEG2′-PEG2′-γGlu-Palmitoyl])RAQDFVQWLMNTGGPSSGAPPPS-NH2) [Compound 16]”, 40.86%; to “His-(D-Ser)-Gln-Gly-Thr-Phe-Thr-Ser-Asp-Tyr-Ser-Lys-Tyr-Leu-Asp-Lys-Lys(PEG2-PEG2-γGlu-CO(CH2)16CO2H)-Ala- Ala-His-Asp-Phe-Val-Glu-Trp-Leu-Leu-Arg-Thr-Gly-Gly-Pro-Ser-Ser-Gly-Ala-Pro-Pro-Pro-Ser-NH2 [Compound 7]”, 46.53%.
Regarding “His-Aib-Gln-Gly-Thr-Phe-Thr-Ser-Asp-Lys(PEG2-PEG2-yGlu- CO(CH2)14CH3)-Ser-Lys-Tyr-Leu-Asp-Glu-Arg-Arg-Ala-Gln- Asp-Phe-Val-Gln-Trp-Leu-Leu-Asp-Gly-Gly-Gly-Pro-Ser-Ser-Gly-Ala-Pro-Pro-Pro-Ser-NH2 (H[Aib]QGTFTSDK([PEG2′-PEG2′-γGlu-Palmitoyl])SKYLDERRAQDFVQWLLDGGGPSSGAPPPS-NH2) [Compound 6]”, the “Relative expression of α-SMA (α-SMA/β-actin, %)” value is 42.34%.
As for “His-Aib-Gln-Gly-Thr-Phe-Thr-Ser-Asp-Lys(PEG2-PEG2-yGlu- CO(CH2)16CH3)-Ser-Lys-Tyr-Leu-Asp-Glu-Arg-Arg-Ala-Gln- Asp-Phe-Val-Gln-Trp-Leu-Leu-Asp-Gly-Gly-Pro-Ser-Ser-Gly-Ala-Pro-Pro-Pro-Ser-NH2 (H[Aib]QGTFTSDK([PEG2′-PEG2′-γGlu-Stearoyl])SKYLDERRAQDFVQWLLDGGPSSGAPPPS-NH2) [Compound 4]”, the “Relative expression of α-SMA (α-SMA/β-actin, %)” value is 40.19%.
